{"source": "patent US12384776B2", "about": "“Compounds and uses thereof” (Foghorn Therapeutics Inc., priority 2019, dated 2025)", "assay_type_in_all_cases": "cell-based", "key": {"[1]": {"tested_on": "synovial sarcoma cell lines (SYO1, Yamato, HS-SY-II, and ASKA)", "test": "Growth of synovial sarcoma cell lines (IncuCyte confluency, crystal violet, colony imaging), Example 3", "method": "(§1) Cells were treated with DMSO or the BRD9 degrader, Compound 1, at indicated concentrations, and proliferation was monitored from day 7 to day 14 by measuring confluency over time using an IncuCyte live cell analysis system (FIG. 5). Growth medium and compounds were refreshed every 3-4 days.\n(§2) Cells were seeded into 12-well plates and treated with DMSO, 1 μM BRD9 inhibitor, Compound 2 (also known as BI-7273, see Martin et al, J Med Chem. 59(10):4462-4475 (2016); see structure of compound 2 below), or 1 μM BRD9 degrader, Compound 1.\n(§3) The number of cells was optimized for each cell line. Growth medium and compounds were refreshed every 3-5 days. SYO1, Yamato, A549, 293T and HS-SY-II cells were fixed and stained at day 11. ASKA cells were fixed and stained at day 23. Staining was done by incubation with crystal violet solution (0.5 g Crystal Violet, 27 ml 37% Formaldehyde, 100 mL 10×PBS, 10 mL Methanol, 863 dH20 to 1 L) for 30 min followed by 3× washes with water and drying the plates for at least 24 h at room temperature. Subsequently plates were scanned on an Odyssey CLx Imaging system (FIG. 6).\n(§4) Cells were seeded into 96-well ultra low cluster plate (Costar, #7007) in 200 μL complete media and treated at day 2 with DMSO, Staurosporin, or BRD9 degarder, Compound 1, at indicated doses (FIG. 3C). Media and compounds were changed every 5 d and cell colonies were imaged at day 14."}, "[2]": {"tested_on": "non-synovial control cancer cell lines (RD, HCT116, and Calu6)", "test": "Crystal violet growth assay in non-synovial control cancer cell lines, Example 4", "conditions": "day 14", "method": "(§5) Procedure: Cells were seeded into 6-well or 12-well plates and were treated daily with a BRD9 degrader (Compound 1), a bromo-domain BRD9 binder (Compound 2), E3 ligase binder (lenalidomide), DMSO, or staurosporin (positive control for cell killing), at indicated concentrations. The number of cells was optimized for each cell line. Growth media was refreshed every 5 days. By day 14, medium was removed, cells were washed with PBS, and stained using 500 μL of 0.005% (w/v) crystal violet solution in 25% (v/v) methanol for at least 1 hour at room temperature. Subsequently plates were scanned on an Odyssey CLx Imaging system."}, "SYO1 cells [3]": {"tested_on": "SYO1 cells", "test": "Cell cycle analysis (Click-iT Plus EdU Flow Cytometry Assay)", "conditions": "200 nM or 1 μM, 8 or 13 days, as compared to DMSO and lenalidomide", "method": "(§6) Procedure: SYO1 cells were treated for 8 or 13 days with DMSO, a BRD9 degrader (Compound 1) at 200 nM or 1 μM, or an E3 ligase binder (lenalidomide) at 200 nM. Compounds were refreshed every 5 days. Cell cycle analysis was performed using the Click-iT™ Plus EdU Flow Cytometry Assay (Invitrogen). The apoptosis assay was performed using the Annexin V-FITC Apoptosis Detection Kit (Sigma A9210). Assays were performed according to the manufacturer's protocol."}, "[4]": {"tested_on": "synovial sarcoma cell lines (SYO1, HS-SY-II, and ASKA)", "test": "Crystal violet growth assay in synovial sarcoma cell lines, Example 4", "method": "as §5"}, "[5]": {"tested_on": "non-synovial control cancer cell lines (293T, A549, G401)", "test": "Growth of non-synovial control cancer cell lines, Example 3", "method": "as §1, §2, §3, §4"}, "SYO1 cells [6]": {"tested_on": "SYO1 cells", "test": "Apoptosis assay (Annexin V-FITC Apoptosis Detection Kit)", "conditions": "200 nM or 1 μM, 8 days, as compared to DMSO controls", "method": "as §6"}}, "data": [{"smiles": "COc1cc(-c2cn(C)c(=O)c3cnccc23)cc(OC)c1CN(C)CC(=O)NCCOCCOCCNc1cccc2c1C(=O)N(C1CCC(=O)NC1=O)C2=O", "note": "(stereo not shown) [Compound 1]", "values": [{"measurement": "inhibition of the growth of the cells", "setting": "[1]", "result": "inhibition of the growth of the cells"}, {"measurement": "inhibition of the growth of the cells", "setting": "[2]", "result": "did not result in inhibition of the growth"}, {"measurement": "numbers of cells in the S-phase of the cell cycle", "setting": "SYO1 cells [3]", "result": "reduced numbers of cells in the S-phase"}, {"measurement": "growth inhibition compared with the other treatments", "setting": "[4]; all synovial cell lines", "result": "most significant growth inhibition"}, {"measurement": "inhibition of the growth of the cells", "setting": "[4]; synovial sarcoma cell lines SYO1, HS-SY-II, ASKA, day 14", "result": "inhibition of the growth of the cells"}, {"measurement": "inhibition of the growth of the cells", "setting": "[5]", "result": "does not result in inhibition of the growth"}, {"measurement": "numbers of early- and late-apoptotic cells", "setting": "SYO1 cells [6]", "result": "increased numbers of early- and late-apoptotic cells"}]}]}
